{
  "source": "paper PMC3820707",
  "about": "“Structure-Activity Relationships of Constrained Phenylethylamine Ligands for the Serotonin 5-HT2 Receptors” (PLoS ONE, 2013)",
  "key": {"5-HT2A [1]": {"molecular_target": "T1, 5-HT2A (Homo sapiens, UniProt P28223)", "T1 sequence (P28223 whole entry)": "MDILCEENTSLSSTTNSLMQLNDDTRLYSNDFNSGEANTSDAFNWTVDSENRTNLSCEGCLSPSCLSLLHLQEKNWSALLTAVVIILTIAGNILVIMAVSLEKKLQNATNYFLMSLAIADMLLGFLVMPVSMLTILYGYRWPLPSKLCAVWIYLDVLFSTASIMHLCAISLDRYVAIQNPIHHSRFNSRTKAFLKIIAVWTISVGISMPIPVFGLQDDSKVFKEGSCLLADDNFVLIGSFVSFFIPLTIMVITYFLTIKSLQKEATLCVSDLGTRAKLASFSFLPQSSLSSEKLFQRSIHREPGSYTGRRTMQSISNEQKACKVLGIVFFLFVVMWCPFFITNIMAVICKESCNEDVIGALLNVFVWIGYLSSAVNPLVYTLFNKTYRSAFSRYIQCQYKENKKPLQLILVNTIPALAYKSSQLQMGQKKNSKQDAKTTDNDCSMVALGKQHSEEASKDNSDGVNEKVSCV", "settings": "read-out: Affinity, Ki 5-HT2A; cited from earlier work"}, "5-HT2C [2]": {"molecular_target": "5-HT2C", "settings": "Rat; read-out: Affinity, Ki 5-HT2C; cited from earlier work"}, "5-HT2A [3]": {"molecular_target": "5-HT2A", "settings": "cited from earlier work; for Ki: Rat, read-out: Affinity, Ki 5-HT2A"}, "5-HT2A-C": {"molecular_target": "5-HT2A-C", "design": "method as in PMID 9857084", "settings": "range over 5-HT2A, 5-HT2B, 5-HT2C; read-out: Affinity in 5-HT2A-C; cited from earlier work"}, "5-HT2B": {"molecular_target": "5-HT2B (Homo sapiens, UniProt P41595)", "sequence (P41595 whole entry)": "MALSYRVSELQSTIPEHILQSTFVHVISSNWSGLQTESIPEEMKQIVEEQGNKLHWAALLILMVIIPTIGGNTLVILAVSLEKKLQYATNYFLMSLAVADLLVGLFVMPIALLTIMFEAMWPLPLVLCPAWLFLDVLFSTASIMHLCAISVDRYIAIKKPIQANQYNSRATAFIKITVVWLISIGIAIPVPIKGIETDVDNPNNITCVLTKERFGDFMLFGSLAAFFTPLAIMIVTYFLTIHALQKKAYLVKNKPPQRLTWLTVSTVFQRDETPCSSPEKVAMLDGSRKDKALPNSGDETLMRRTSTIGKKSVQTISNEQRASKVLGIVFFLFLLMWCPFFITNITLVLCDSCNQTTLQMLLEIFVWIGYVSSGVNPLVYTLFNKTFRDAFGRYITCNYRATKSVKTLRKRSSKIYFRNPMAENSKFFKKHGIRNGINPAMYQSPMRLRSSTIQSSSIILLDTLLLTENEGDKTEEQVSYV", "experiment": "Competition binding with [3H]-LSD (NIMH PDSP)"}, "5-HT2A [4]": {"molecular_target": "T1, 5-HT2A", "experiment": "Competition binding with [3H]-ketanserin (NIMH PDSP)"}, "5-HT2C [5]": {"molecular_target": "T2, 5-HT2C (Homo sapiens, UniProt P28335)", "T2 sequence (P28335 33-458)": "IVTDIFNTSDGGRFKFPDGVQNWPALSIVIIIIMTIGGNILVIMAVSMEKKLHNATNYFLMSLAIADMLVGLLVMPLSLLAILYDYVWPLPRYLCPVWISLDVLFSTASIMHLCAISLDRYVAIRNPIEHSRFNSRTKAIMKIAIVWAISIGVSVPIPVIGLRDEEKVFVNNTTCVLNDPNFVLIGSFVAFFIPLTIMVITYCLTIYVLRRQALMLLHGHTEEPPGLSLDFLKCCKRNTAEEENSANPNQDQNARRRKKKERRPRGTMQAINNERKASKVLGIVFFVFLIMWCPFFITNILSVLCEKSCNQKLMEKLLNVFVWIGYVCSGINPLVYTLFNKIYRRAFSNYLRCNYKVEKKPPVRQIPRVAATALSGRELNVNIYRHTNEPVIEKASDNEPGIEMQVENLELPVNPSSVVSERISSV", "experiment": "Competition binding with [3H]-mesulergine (NIMH PDSP)"}, "[6]": {"settings": "Affinity, Ki 5-HT2B, radioligand [3H]-LSD"}},
  "note": "Where a name gives a salt, the structure may show the parent alone. Read-outs that look alike come from different tables or passages of the source.",
  "data": [
    {"compound": "COc1cc2c(cc1Br)OCC2CN", "note": "(stereo not shown) (as salt: hydrochloride) [Compound 9, (6-Bromo-5-methoxy-2,3-dihydrobenzofuran-3-yl)methanamine]", "values": [
      {"measurement": "melting point", "result": "232 to 234 °C (dec.)"}
    ]},
    {"compound": "COc1cc2c(cc1Br)OCCCC2CN", "note": "(stereo not shown) (as salt: hydrochloride) [Compound 11, (8-Bromo-7-methoxy-2,3,4,5-tetrahydrobenzo[b]oxepin-5-yl)methanamine]", "values": [
      {"measurement": "melting point", "result": "224 to 226", "unit": "°C"}
    ]},
    {"compound": "COc1cc(CCN)c(OC)cc1Br", "note": "[Compound 1a, 2C-B]", "values": [
      {"measurement": "Ki", "setting": "5-HT2A [1]", "result": 0.88, "unit": "nM"}
    ]},
    {"compound": "COc1cc(CC(C)N)c(OC)cc1Br", "note": "(stereo not shown) [Compound 1b, DOB]", "values": [
      {"measurement": "Ki", "setting": "5-HT2C [2]", "result": 2.82, "unit": "nM"},
      {"measurement": "Ki", "setting": "5-HT2A [3]", "result": "[…]"}
    ]},
    {"compound": "NCCc1c2c(c(Br)c3c1OCCC3)OCCC2", "note": "[Compound 3a, 2C-B-butterfly]", "values": [
      {"measurement": "Ki", "setting": "5-HT2C [2]", "result": 1.52, "unit": "nM"},
      {"measurement": "Ki", "setting": "5-HT2A [3]", "result": 1.76, "unit": "nM"}
    ]},
    {"compound": "CC(N)Cc1c2c(c(Br)c3c1OCCC3)OCCC2", "note": "(stereo not shown) [Compound 3b, DOB-butterfly]", "values": [
      {"measurement": "Ki", "setting": "5-HT2C [2]", "result": 1.85, "unit": "nM"},
      {"measurement": "Ki", "setting": "5-HT2A [3]", "result": 3.87, "unit": "nM"}
    ]},
    {"compound": "CC(N)Cc1c2ccoc2c(Br)c2ccoc12", "note": "(stereo not shown) [Compound 4, Bromo-DragonFLY]", "values": [
      {"measurement": "Ki", "setting": "5-HT2A-C", "result": "0.02 to 0.19", "unit": "nM"}
    ]},
    {"compound": "COc1cc(Br)c(OC)c2c1C(CN)CC2", "note": "(stereo not shown) [Compound 7]", "values": [
      {"measurement": "Ki", "setting": "5-HT2A [1]", "result": 47, "unit": "nM"}
    ]},
    {"compound": "COc1cc2c(cc1Br)OCCC(N)C2", "note": "(stereo not shown) [Compound 8]", "values": [
      {"measurement": "Fold lower affinity than the unconstrained reference DOB", "setting": "5-HT2A [3]; 5-HT2A", "result": 373, "unit": "fold"},
      {"measurement": "Ki", "setting": "5-HT2A [3]", "result": 422, "unit": "nM"}
    ]},
    {"compound": "COc1cc2c(cc1Br)OCC2CN", "note": "(stereo not shown) [Compound 9, (6-Bromo-5-methoxy-2,3-dihydrobenzofuran-3-yl)methanamine]", "values": [
      {"measurement": "Ki", "setting": "5-HT2B; [6]", "result": "196 ± 28", "unit": "nM"},
      {"measurement": "Ki", "setting": "5-HT2A [4]", "result": "1040 ± 188", "unit": "nM"},
      {"measurement": "Ki", "setting": "5-HT2C [5]", "result": "135 ± 31", "unit": "nM"}
    ]},
    {"compound": "COc1cc2c(cc1Br)OCCCC2CN", "note": "(stereo not shown) [Compound 11, (8-Bromo-7-methoxy-2,3,4,5-tetrahydrobenzo[b]oxepin-5-yl)methanamine]", "values": [
      {"measurement": "Ki", "setting": "5-HT2B; Affinity for 5-HT2B, radioligand [3H]-LSD", "result": 1900, "unit": "nM"},
      {"measurement": "Ki", "setting": "5-HT2B; [6]", "result": "1870 ± 345", "unit": "nM"},
      {"measurement": "Ki", "setting": "5-HT2A [4]", "result": "> 10000", "unit": "nM"},
      {"measurement": "Affinity, Ki 5-HT2A", "setting": "5-HT2A [4]; Human, radioligand [3H]-ketanserin", "result": "inactive"},
      {"measurement": "Ki", "setting": "5-HT2C [5]", "result": "> 10000", "unit": "nM"},
      {"measurement": "Affinity, Ki 5-HT2C", "setting": "5-HT2C [5]; Human, radioligand [3H]-mesulergine", "result": "inactive"}
    ]},
    {"compound": "(6-Methoxychroman-4-yl)methanamine [Compound 10]", "values": [
      {"measurement": "Ki", "setting": "5-HT2B; read-out: Affinity, Ki 5-HT2B, radioligand [3H]-LSD", "result": "70 ± 13", "unit": "nM"},
      {"measurement": "Ki", "setting": "5-HT2A [4]; read-out: Affinity, Ki 5-HT2A, Human, radioligand [3H]-ketanserin", "result": "847 ± 79", "unit": "nM"},
      {"measurement": "Ki", "setting": "5-HT2C [5]; read-out: Affinity, Ki 5-HT2C, Human, radioligand [3H]-mesulergine", "result": "124 ± 9", "unit": "nM"}
    ]}
  ]
}
